Measurements published in DBAASP.
In brackets after ≈: the same amount, converted by molar mass.

Key:
Assay in all cases: ≥ marks a high value that may be exact or a test limit, other limits are often not marked, values filed in µg/mL are converted to µM
[1] = test system: Pseudomonas aeruginosa ATCC 27853
[2] = test system: Staphylococcus epidermidis ATCC 35984
[3] = test system: Staphylococcus aureus ATCC 33591
[4] = test system: Staphylococcus aureus ATCC 25923
[5] = test system: Salmonella enterica subsp. enterica serovar Typhimurium ATCC 14028
[6] = test system: Escherichia coli ATCC 11219
[7] = test system: Pseudomonas aeruginosa ATCC 13388
[8] = test system: Staphylococcus aureus ATCC 6538
[9] = test system: Klebsiella pneumoniae ATCC 10031
[10] = test system: Enterobacter cloacae CGMCC 1.57
[11] = test system: Nocardia asteroides 201118
[12] = test system: Psychrobacter faecalis X29
[13] = test system: Enterococcus faecalis 981
[14] = test system: Klebsiella pneumoniae 08040724
[15] = test system: Enterococcus faecium 091299
[16] = test system: Escherichia coli NEB5alpha
[17] = test system: Bacillus subtilis ATCC 6051
[18] = test system: Cronobacter sakazakii ATCC BAA-894
[19] = test system: Klebsiella pneumoniae NCIMB 13218
[20] = test system: Staphylococcus aureus RN4220
[21] = test system: Escherichia coli NCIMB 11843
[22] = test system: Cronobacter muytjensii ATCC 51329
[23] = test system: Pseudomonas fluorescens NCIMB 9046
[24] = test system: Cronobacter sakazakii DPC 6440
[25] = test system: Salmonella enterica subsp. enterica serovar Typhimurium LT2
[26] = test system: Cronobacter sakazakii DSM 4485
[27] = test system: Staphylococcus aureus NCTC 8325-4
[28] = test system: Staphylococcus aureus RF122
[29] = test system: Staphylococcus aureus SA113
[30] = test system: Staphylococcus aureus Newman
Candida glabrata 090902 = test system: Candida glabrata 090902
[31] = test system: Staphylococcus aureus 22401
Bacillus subtilis A47 = test system: Bacillus subtilis A47
Escherichia coli 44102 = test system: Escherichia coli 44102

## CC[C@H](C)[C@H](NC(=O)[C@H](CCCCN)NC(=O)[C@@H](NC(=O)[C@H](Cc1ccccc1)NC(=O)[C@H](C)NC(=O)[C@H](CCCCN)NC(=O)CNC(=O)[C@H](Cc1ccccc1)NC(=O)[C@@H](N)CCCCN)C(C)C)C(=O)N[C@@H](CC(C)C)C(=O)N[C@@H](CCCCN)C(=O)N[C@@H](CCCCN)C(N)=O [KFGKAFVKILKK]
[1]
  MIC: 16.1 µM (≈ 22.6 µg/mL)
[2]
  MIC: ≥ 64.3 µM
[3]
  MIC: ≥ 257 µM
[4]
  MIC: 257 µM (≈ 362 µg/mL)

## CC[C@H](C)[C@H](NC(=O)[C@H](CCCCN)NC(=O)[C@@H](NC(=O)[C@H](Cc1ccccc1)NC(=O)[C@H](C)NC(=O)[C@H](CCCCN)NC(=O)CNC(=O)[C@H](Cc1ccccc1)NC(=O)[C@H](CCCCN)NC(=O)[C@H](CCCCN)NC(=O)[C@H](C)NC(=O)[C@H](CCCCN)NC(=O)[C@H](CCCCN)NC(=O)[C@H](CC(C)C)NC(=O)[C@H](Cc1ccccc1)NC(=O)[C@H](CCCCN)NC(=O)CN)C(C)C)C(N)=O [GKFLKKAKKFGKAFVKI]
[1]
  MIC: 0.73 µM (≈ 1.41 µg/mL)
[2]
  MIC: 5.84 µM (≈ 11.3 µg/mL)
[3]
  MIC: ≥ 264 µM
[4]
  MIC: 132 µM (≈ 256 µg/mL)

## CC[C@H](C)[C@H](NC(=O)CN)C(=O)N[C@@H](Cc1cnc[nH]1)C(=O)N[C@@H](CC(=O)O)C(=O)N[C@H](C(=O)N[C@@H](CC(C)C)C(=O)N[C@@H](CCCCN)C(=O)N[C@@H](Cc1ccc(O)cc1)C(=O)NCC(=O)N[C@@H](CCCCN)C(=O)N1CCC[C@H]1C(=O)N[C@@H](C)C(N)=O)[C@@H](C)CC [GIHDILKYGKPA]
[5]
  MIC: > 50 µM
[6]
  MIC: ≥ 50 µM
[7]
  MIC: ≥ 50 µM
[8]
  MIC: > 50 µM
[9]
  MIC: 30 µM (≈ 39.3 µg/mL)

## CC[C@H](C)[C@@H]1NC(=O)[C@H](CCCCN)NC(=O)[C@@H](NC(=O)[C@H](CCCCN)NC(=O)[C@H](CC(C)C)NC(=O)[C@H](CCCCN)NC(=O)[C@H](CC(=O)O)NC(=O)[C@H](CC(C)C)NC(=O)[C@H](CC(C)C)NC(=O)[C@@H](NC(=O)[C@@H](NC(=O)[C@H](C)NC(=O)[C@@H](NC(=O)[C@H](CC(N)=O)NC(=O)[C@H](CCCCN)NC(=O)[C@H](Cc2ccccc2)NC(=O)[C@@H](NC(=O)[C@H](CC(N)=O)NC(=O)[C@H](CCCCN)NC(=O)[C@H](C)NC(=O)[C@@H](NC(=O)[C@H](CC(=O)O)NC(=O)[C@H](CCSC)NC(=O)[C@H](Cc2ccccc2)NC(=O)CN)[C@@H](C)O)C(C)C)C(C)C)C(C)C)[C@@H](C)O)CSSC[C@@H](C(=O)O)NC(=O)CNC(=O)CNC(=O)[C@H](C)NC1=O [GFMDTAKNVFKNVAVTLLDKLKCKIAGGC]
[10]
  MIC: ≥ 50 µM
[11]
  MIC: 6.3 µM (≈ 19.4 µg/mL)
[12]
  MIC: 3.1 µM (≈ 9.56 µg/mL)
[13]
  MIC: ≥ 100 µM
[4]
  MIC: 50 µM (≈ 154 µg/mL)
[14]
  MIC: ≥ 100 µM
[15]
  MIC: 25 µM (≈ 77.1 µg/mL)

## CC[C@H](C)[C@H](NC(=O)[C@H](CO)NC(=O)[C@H](CCC(=O)O)NC(=O)[C@H](CCCCN)NC(=O)[C@@H](NC(=O)[C@@H](N)CCCCN)C(C)C)C(=O)N[C@H](C(=O)N[C@@H](CCCN=C(N)N)C(=O)N[C@@H](CCCCN)C(=O)N[C@@H](CC(C)C)C(=O)O)[C@@H](C)CC [KVKESIIRKL]
[16]
  MIC: ≥ 1000 µM
[17]
  MIC: ≥ 500 µM

## CC[C@H](C)[C@H](NC(=O)[C@@H](N)Cc1cnc[nH]1)C(=O)N[C@@H](CCC(N)=O)C(=O)N[C@@H](CCCCN)C(=O)N[C@@H](CCC(=O)O)C(=O)N[C@@H](CC(=O)O)C(=O)N[C@H](C(=O)N1CCC[C@H]1C(=O)N[C@@H](CO)C(=O)N[C@@H](CCC(=O)O)C(=O)N[C@@H](CCCN=C(N)N)C(=O)N[C@@H](Cc1ccc(O)cc1)C(=O)N[C@@H](CC(C)C)C(=O)NCC(=O)N[C@@H](Cc1ccc(O)cc1)C(=O)N[C@@H](CC(C)C)C(=O)N[C@@H](CCC(=O)O)C(=O)N[C@@H](CCC(N)=O)C(=O)N[C@@H](CC(C)C)C(=O)N[C@@H](CC(C)C)C(=O)N[C@@H](CCCN=C(N)N)C(=O)N[C@@H](CC(C)C)C(=O)N[C@@H](CCCCN)C(=O)N[C@@H](CCCCN)C(=O)N[C@@H](Cc1ccc(O)cc1)C(=O)N[C@@H](CCCCN)C(=O)O)C(C)C [HIQKEDVPSERYLGYLEQLLRLKKYK]
[16]
  MIC: ≥ 169 µM
[17]
  MIC: ≥ 42.3 µM

## CC[C@H](C)[C@H](N)C(=O)N[C@@H](CCCCN)C(=O)N[C@@H](Cc1cnc[nH]1)C(=O)N[C@@H](CCC(N)=O)C(=O)NCC(=O)N[C@@H](CC(C)C)C(=O)N1CCC[C@H]1C(=O)N[C@@H](CCC(N)=O)C(=O)N[C@@H](CCC(=O)O)C(=O)N[C@@H](CCC(=O)O)C(=O)O [IKHQGLPQEE]
[18]
  MIC: ≥ 2500 µM
[19]
  MIC: ≥ 2500 µM
[20]
  MIC: ≥ 2500 µM
[21]
  MIC: ≥ 2500 µM
[22]
  MIC: ≥ 2500 µM
[23]
  MIC: ≥ 2500 µM
[24]
  MIC: ≥ 2500 µM
[25]
  MIC: ≥ 2500 µM
[26]
  MIC: ≥ 2500 µM
[27]
  MIC: ≥ 2500 µM
[28]
  MIC: ≥ 2500 µM
[29]
  MIC: ≥ 2500 µM
[30]
  MIC: ≥ 2500 µM

## CC[C@H](C)[C@H](NC(=O)CN)C(=O)N[C@@H](Cc1cnc[nH]1)C(=O)N[C@@H](CC(=O)O)C(=O)N[C@H](C(=O)N[C@@H](CC(C)C)C(=O)N[C@@H](C)C(=O)N[C@@H](Cc1ccc(O)cc1)C(=O)NCC(=O)N[C@@H](CCCCN)C(=O)N1CCC[C@H]1C(=O)N[C@@H](CO)C(N)=O)[C@@H](C)CC [GIHDILAYGKPS]
[5]
  MIC: 15 µM (≈ 19 µg/mL)
[6]
  MIC: 15 µM (≈ 19 µg/mL)
[7]
  MIC: 15 µM (≈ 19 µg/mL)
[8]
  MIC: 10 µM (≈ 12.7 µg/mL)
[9]
  MIC: 20 µM (≈ 25.4 µg/mL)

## CC[C@H](C)[C@H](NC(=O)[C@@H](NC(=O)[C@H](CCCCN)NC(=O)CNC(=O)[C@H](CC(C)C)NC(=O)[C@@H](NC(=O)[C@@H]1CCCN1C(=O)[C@H](CC(C)C)NC(=O)[C@@H](N)Cc1ccccc1)C(C)C)C(C)C)C(=O)N[C@@H](CCCCN)C(=O)N[C@@H](CC(C)C)C(=O)N[C@H](C(=O)NCC(=O)NCC(=O)N[C@@H](CC(C)C)C(=O)N[C@@H](CC(C)C)C(N)=O)C(C)C [FLPVLGKVIKLVGGLL]
[11]
  MIC: 3.1 µM (≈ 5.16 µg/mL)
[12]
  MIC: ≥ 50 µM
[13]
  MIC: 3.1 µM (≈ 5.16 µg/mL)
Candida glabrata 090902
  MIC: ≥ 50 µM
[4]
  MIC: 3.1 µM (≈ 5.16 µg/mL)

## CC(C)C[C@H](NC(=O)CNC(=O)[C@H](Cc1ccccc1)NC(=O)[C@H](CC(C)C)NC(=O)[C@H](CCCN=C(N)N)NC(=O)[C@H](CC(C)C)NC(=O)[C@H](Cc1c[nH]c2ccccc12)NC(=O)CNC(=O)[C@H](CO)NC(=O)[C@H](CCCN=C(N)N)NC(=O)[C@H](CCCN=C(N)N)NC(=O)[C@H](CCC(=O)O)NC(=O)[C@H](CC(C)C)NC(=O)[C@H](C)NC(=O)[C@@H](N)CC(C)C)C(=O)N[C@@H](CCCCN)C(=O)N1CCC[C@H]1C(=O)N[C@@H](CCCN=C(N)N)C(=O)N[C@@H](CCCN=C(N)N)C(=O)N[C@@H](CCCCN)C(=O)N[C@@H](Cc1cnc[nH]1)C(=O)O [LALERRSGWLRLFGLKPRRKH]
[31]
  MIC: 12.5 µM (≈ 32.4 µg/mL)
Bacillus subtilis A47
  MIC: ≥ 50 µM
Escherichia coli 44102
  MIC: ≥ 50 µM
